1 compound from US5204311A, “Ethanediimidic acid bis[(arylalkylidene)hydrazide] color-formers” (Minnesota Mining and Manufacturing Company, priority 1991, dated 1993) can be followed below.

Holding throughout (assay type): physicochemical
Data set [1] in a line: Imaging of CB sheet with encapsulated color-former on Ni-coated CF sheet. The protocol:
A precondensate solution was prepared comprising 192 g of formalin, 0.63 g of potassium tetraborate, 72 g of urea, and 328 g of soft water. The formalin was 37% formaldehyde and was added to a 1-liter flask equipped with a stirrer and heating mantle. The potassium tetraborate and urea were then added, and the mixture was heated to 70° C. The reaction was maintained at that temperature for 2.5-3.0 hr. The reaction mixture was then diluted with the water and allowed to cool. The precondensate solution, with about 24% solids, was then ready for use in the encapsulation process.
The precondensate and fill (ethanediimidic acid bis[hydrazide] and carrier or fill solvents) were combined to make capsules according to the following procedure. Sodium chloride (29.54 g) was added to the stirred precondensate solution and the temperature of the solution was adjusted to 20° C. The fill material (215 g) was added and full agitation was begun. After 5 minutes of stirring, 10% hydrochloric acid solution was added over 5 minutes in an amount such that the final pH of the reaction mixture was about 2.8. The reaction mixture was stirred for another 12 minutes. More of the 10% hydrochloric acid solution was added over a period of 12 minutes, in an amount such that the final pH of the solution was about […]. The reaction mixture was stirred at 20° C. for 1 hr, and then at 60° C. for 1-3 hr. The acidic solution was allowed to cool and adjusted to a pH of 7 by addition of concentrated ammonium hydroxide solution (28%). The capsule slurry could then be stored for later use.
The capsule slurry (10 g) was added to 65 g of a 1.5% aqueous sodium alginate solution. The mixture was applied to a coated paper using a bar coater with a 3 mil gap. The coating was allowed to dry at room temperature.
A 2% solution of the compound 1 in the capsule fill solvent of diethyl phthalate, tributyl phosphate, and cyclohexane was encapsulated by the procedure described in Experiment 5 above. A coating mixture of 10.0 g of capsule slurry, 2.5 g of Dow-620 butadiene-styrene latex, and 62.5 g of 1.5% sodium alginate slurry was coated onto paper by the draw down procedure described above.
A 7.5% solution comprising 5.45% N-(5-octanoylamido-2-metylpentyl)dithiooxamide/N-(5-octanoylamido-4-methylpentyl)dithiooxamide (G') mixture and 2.05% N,N'-di(5-octanoylamido-2-methylpentyl)dithiooxamide/N-(5-octanoylamido-2- methylpentyl)-N'-(5-octanoylamido-4-methylpentyl)dithiooxamide/N,N'-(5-octanoylamido-2-methylpentyl)dithiooxamide (G) mixture in the fill solvent mixture of diethyl phthalate, tributyl phosphate, and cyclohexanone was encapsulated by the procedure described above. A coating mixture of 10.0 g of capsule slurry, 2.5 g of Dow 620 styrene-butadiene latex, and 62.5 g of 1.5% sodium alginate solution was coated onto paper by the draw down procedure described in Experiment 5 above.
A blend was prepared of 10 g of the capsule slurry containing compound 1, with 10 g of capsule slurry containing 5.45% N-(5-octanoylamido-2-methylpentyl)dithiooxamide/N-(5-octanoylamido-4-methylpentyl)dithiooxamide (G') mixture and 2.05% N,N'-di(5-octanoylamido-2-methylpentyl)dithiooxamide/N-(5-octanoylamido-2- methylpentyl)-N'-(5-octanoylamido-4-methylpentyl)dithiooxamide/N,N'-di(5-octanoylamido-4-methylpentyl)dithiooxamide (G) mixture. […]

The nature of data set [2]: Stability in concentrated hydrochloric acid.
A short description of data set [3]: Solubility in capsule fill solvents. The protocol:
The encapsulation process requires the color-forming ligand be dissolved in a solvent or mixed solvents, because of the nature of the procedure. Formation of a microcapsule shell as by condensation of urea or melamine with an aldehyde such as formaldehyde or mixtures of aldehydes to form the capsule shell is carried out in an acidic aqueous medium and the color-former solution must be insoluble and unreactive to these reagents for the encapsulation to proceed. Solvents commonly used include tributyl phosphate, diethyl phthalate, and cyclohexane. […] As mentioned above, solubility of yellow color-formers exemplified by structure I in nonaqueous solvents such as those used in the encapsulation process may be increased by substituting alkyl, aryl, aralkyl, alkenyl, or such groups for the hydrogens on the various positions available in the structure I above.
(§1) This color observed on the CF sheet was yellow. […] Solubility in a solvent blend of tributyl phosphate, diethyl phthalate and cyclohexane (capsule solvents for preparing carbonless copy-paper) was >9% by weight. Thus the ligand is eminently suitable for encapsulation. The ligand is not volatile at 71 ° C. overnight.
Solubility in a solvent blend of tributyl phosphate, diethyl phthalate and cyclohexane (capsule solvents for preparing carbonless copy-paper) was 3% by weight. Thus the ligand is eminently suitable for encapsulation. The ligand is not volatile at 71 ° C. overnight.
*THE SOLUBILITY WAS DEEMED PREFERABLE IF IT WAS GREATER THAN 2% IN THE
FILL MIX AT ROOM TEMPERATURE FOR 3 DAYS. THE FILL MIX COMPRISED
TRIBUTYLPHOSPHATE (26.5%); DIETHYLPHTHALATE (17.6%); AND CYCLOHEXANE

The nature of data set [4]: Color formation with zinc salts (zinc rosinate). The method, then: as §1
This color observed on the CF sheet was yellow.

Where [5] appears, read: encapsulated, 2% compound 1 fill, 7.5% G'/G fill, or blend of both capsule slurries (Experiment 6).

Regarding `CC(C)(C)c1cc(C=NN=C(N)C(N)=NN=Cc2cc(C(C)(C)C)cc(C(C)(C)C)c2O)c(O)c(C(C)(C)C)c1` [Compound 1, ethanediimidic acid bis[(3,5-di-t-butylsalicylidene)hydrazide]], in data set [1] (encapsulated (Experiment 6)), the Image Color entry was “yellow”. In data set [1] (setting [5]), the “Hunter coordinate L” value was 84.0, the Hunter coordinate a was -2.04 and the Hunter coordinate b came out at 31.0. The “stability in concentrated hydrochloric acid” value in data set [2] is listed as “stable”. In data set [3], the “Solubility in a solvent blend of tributyl phosphate, diethyl phthalate and cyclohexane” value is recorded as more than 9 % by weight; the “solubility in encapsulation / capsule solvents (in words)” value is “very soluble in encapsulation solvents”. In data set [3] (4320 min), the “Dye Solubility” value is reported as more than 9.0%. Moreover, in data set [4], the “color formation when reacted with zinc rosinate” value is “does not form color”.
